# Data reported in patent EP1829539A2, “A method for treating tension-type headache” (priority 1996, dated 1998).
# Structures can show the parent of a compound that is named as a salt.
# Assays:
# [1] = tested on: patients with chronic tension-type headache; experiment: Double-blind crossover study of intravenous L-NMMA versus placebo in chronic tension-type headache; assay type: in vivo, human
# Method: Five patients with coexisting infrequent migraine (≤ one day/month) were accepted. […] At screening, a full physical and neurological examination, including 12-lead ECG were carried out. Blood samples for routine haematological and biochemical testing, and urine sample for urinanalysis were taken. The patients were not allowed to take analgesics 12 hours prior to the treatment. […] All patients gave written informed consent to participate in the study, which was approved by the local ethics committee and conducted in accordance with the Declaration of Helsinki.
# Using a double-blind crossover design, the patients were randomised to receive 6 mg/kg L-NMMA (Clinalfa, Switzerland) or placebo (isotone glucose) on two days with a typical episode of tension-type headache separated by at least one week. Randomisation (Med.Stat) and drug preparation were performed by staff not involved in the study. The medication was given over 15 minutes into an antecubital vein (Braun Perfusor). The following parameters were measured at baseline and 15, 30, 60 and 120 minutes post administration: headache intensity on a 100-mm Visual Analog Scale (VAS) (0 - no headache and 100 - worst imaginable headache) and on a Verbal Rating Scale (VRS) from 0-10 (0 - no headache; 5 - moderate headache; 10 - worst imaginable headache). Blood pressure and pulse rate were measured 5 minutes prior to administration of treatment and at 5, 10, 15, 20, 25, 30, 60, 90 and 120 minutes post administration. Twelve-lead ECG was monitored continuously. Any adverse events were recorded. Patients with unrelieved headache at 120 minutes post treatment were allowed to take rescue medication. All patients were asked to record details of the following on a diary card at 4, 8, 12, 16, 20 and 24 hours post administration: headache intensity on VRS, any medication taken and adverse events. Between 4-7 days after each treatment, the patients returned to the clinic, the diary cards were collected and any adverse events were noted.
# The secondary endpoints were reduction of pain intensity at 30, 60, 90 and 120 minutes post dosing on VAS and VRS compared to pre-treatment pain score within each treatment. Comparison of pain intensity on VAS, blood pressure and pulse rate over time between treatments were performed with ANOVA. Paired-Samples T Test was used to compare pre-treatment pain score on VAS with pain score at 30, 60, 90, 120 minutes post dosing within each treatment. […] These sums of differences for each treatment were compared by Wilcoxon Signed Rank test. Five percent was accepted as level of significance.
# [2] = tested on: patients with chronic tension-type headache; experiment: Open labelled pilot study of prophylactic Dextromethorphan in chronic tension-type headache; assay type: in vivo, human
# Text: Five patients with a diagnosis of chronic tension-type headache according to the International Headache Society (Headache Classification Committee 1988) were recruited from the outpatient headache clinic at Glostrup Hospital. There were 2 males and 3 females, and the mean age was 45.4 years (range 39-48). The mean life time duration of chronic tension-type headache was 12.2 years (range 4-25). One patient had coexisting but infrequent migraine. Exclusion criteria were: daily major medication (including prophylactic headache therapy); abuse of analgesics or alcohol; serious somatic or psychiatric diseases including depression.
# Using an open labelled design, patients fulfilled a diagnostic headache diary during at least 4 weeks run-in period to ensure the diagnostic criteria. Thereafter, the patients received Dextromethorphan (Dexofan®) tablets at 30 mg each, three times per day. The treatment period lasted 4 weeks, and during this period patients were asked to continue with headache diaries, and record headache intensity, frequency, duration, any medication taken and any possible adverse events. At a follow up visit at day 29-32, diaries were collected and possible adverse events and evaluation of the treatment were recorded. Due to the restricted number of patients, no statistical analysis were done. The efficacy parameters were headache intensity, frequency and duration, and intake of simple analgesics. Mean values from the run-in period were compared to those obtained during the treatment period.
# migraine = details: in vivo; cited from earlier work
# tension-type headache = details: Brennum et al. 1992, 1996; cited from earlier work
# [3] = tested on: patients with chronic tension-type headache; experiment: Open labelled pilot study of prophylactic Gabapentin in chronic tension-type headache; assay type: in vivo, human
# Text: Three patients with a diagnosis of chronic tension-type headache according to the International Headache Society (Headache Classification Committee 1988) were recruited from the outpatient headache clinic at Glostrup Hospital. The patients were males with a mean age of 42 years (range 35-49). The mean life time duration of chronic tension-type headache was 16 years (range 7-21). […] Exclusion criteria were: daily major medication (including prophylactic headache therapy); abuse of analgesics or alcohol; serious somatic or psychiatric diseases including depression.
# Using an open labelled design, patients fulfilled a diagnostic headache diary during at least 4 weeks run-in period to ensure the diagnostic criteria. Thereafter, the patients received Gabapentin (Neurontin®) tablets, initially 300 mg (one tablet) per day on day one, increasing with 300 mg (1 tablet) per day to 900 mg (3 tablets) on day 3. The treatment period lasted 4 weeks, and during this period patients were asked to continue with headache diaries, and record headache intensity, frequency, duration, any medication taken and any possible adverse events. At a follow up visit at day 29-32, diaries were collected and any adverse events and evaluation of the treatment were recorded. Due to the low number of patients, no statistical analysis were done. The primary efficacy parameters were headache intensity, frequency and duration, and the mean values from the run-in period were compared to those obtained during the treatment period.
# GABA A = details: binding studies; cited from earlier work
# [4] = tested on: alpha-2-subunit of a calcium channel; details: Gee et al. 1996; cited from earlier work
# [5] = 100-mm VAS, 6 mg/kg L-NMMA i.v. over 15 minutes, mean (SD), p < 0.05 vs pretreatment
# [6] = 0-10 VAS intensity scale, mean, before treatment
smiles,measurement,setting,value
"CNC(=N)NCCC[C@H](N)C(=O)O [L-NMMA, L- N^G methyl arginine hydrochloride]","Pain scores on VAS, 30 minutes post dosing",[1]; [5],38 ± 18
same,"Pain scores on VAS, 60 minutes post dosing",[1]; [5],35 ± 18
same,"Pain scores on VAS, 90 minutes post dosing",[1]; [5],34 ± 21
same,"Pain scores on VAS, 120 minutes post dosing",[1]; [5],33 ± 21
same,Pain scores on VAS before treatment (Baseline),"[1]; 100-mm VAS, pre-treatment value on the L-NMMA day, 16 patients, mean (SD)",49 ± 16
same,Pain intensity on VRS compared with placebo,"[1]; Verbal Rating Scale 0-10, sum of differences, Wilcoxon, p=0.02",significantly lower after treatment with L-NMMA than after treatment with placebo
same,Withdrawal from the study because of side effects,[1]; in vivo,No patients withdrew from the study because of side effects
same,Maximum decrease in pulse rate,"[1]; occurred 10 minutes post dosing, 6 mg/kg i.v.",16 ± 2%
same,Maximum increase in mean arterial blood pressure (MAP),"[1]; occurred 15 minutes post dosing, 6 mg/kg i.v.",12 ± 2%
same,Patients reporting subjective symptoms in relation to the infusion,[1]; of 16 patients,Seven
same,Subjective symptom: a feeling of tingling in arm (number of patients),[1]; of 16 patients,1
same,Subjective symptom: drowsiness (number of patients),[1]; of 16 patients,1
same,Subjective symptom: dryness of the mouth (number of patients),[1]; of 16 patients,3
same,Subjective symptom: exhaustion (number of patients),[1]; of 16 patients,1
same,Subjective symptom: nausea (number of patients),[1]; of 16 patients,1
same,Subjective symptom: tiredness (number of patients),[1]; of 16 patients,2
same,Patients who used simple analgesics as rescue medication,"[1]; of 16 patients, 7 on placebo",Three
same,Reduction of pain intensity (VAS) over time compared with placebo,"[1]; primary endpoint, ANOVA, p=0.007, 16 patients, hydrochloride",reduced pain intensity (VAS) over time significantly more than placebo
COc1ccc2c(c1)[C@]13CCCC[C@@H]1[C@H](C2)N(C)CC3 [Dextromethorphan],Intensity of headache during active treatment,"[2]; 0-10 VAS intensity scale, mean",3.6
same,Intensity of headache during the run-in period,[2]; [6],4.4
same,Frequency of headache during run-in,[2]; before treatment,28 days per 4 weeks period
same,Mean intake of analgesics during run-in period,[2]; before treatment,1.8 dose per day
same,Patients reporting a marked effect,"[2]; considerable relief of headache intensity and duration within very few days, of 5 patients",Two
same,Frequency of headache during active treatment,[2]; in vivo,27 days per 4 weeks period
same,Mean intake of analgesics during active treatment,[2]; in vivo,0.5 dose per day
same,Patients reporting no effect at all,[2]; of 5 patients,two
same,Patients reporting no side effects,[2]; of 5 patients,Four
same,Patients with a slight relief of headache intensity,[2]; of 5 patients,one
same,Patients with marked side effects with sedation,"[2]; the patient with best clinical response, diminished after dose reduction to 40 mg per day",one
same,Reduction of intensity of headache,"[2]; treatment period (4 weeks, 30 mg three times per day) vs run-in, 5 patients",18%
same,Decrease of frequency of headache,[2]; treatment period vs run-in,4%
same,Decrease of intake of analgesics,[2]; treatment period vs run-in,72%
same,Reduction of duration of the individual headache episode,[2]; treatment period vs run-in,11%
CNS(=O)(=O)Cc1ccc2[nH]cc(CCN(C)C)c2c1 [sumatriptan],Efficacy in migraine,migraine,highly effective
same,Efficacy in tension-type headache,tension-type headache,not effective to a clinically relevant extent
NCC1(CC(=O)O)CCCCC1 [Gabapentin],Headache intensity during active treatment,"[3]; 0-10 VAS intensity scale, mean, 4 weeks",3.6
same,Headache intensity during run-in period,[3]; [6],5.5
same,Frequency of headache during run-in period,[3]; before treatment,23.5 days per 4 weeks
same,"Mean daily intake of analgesics, run-in",[3]; before treatment,1.1 dose per day
same,"Individual response, one patient",[3]; complete relief of the headache after 2 days treatment,excellent effect
same,Side effects in the third patient,[3]; disappeared completely after cessation of the drug intake,"sedation, vertigo and slight nausea"
same,Frequency of headache during the active treatment period,[3]; in vivo,13 days per 4 weeks
same,"Mean daily intake of analgesics, active treatment",[3]; in vivo,0.3 dose per day
same,"Individual response, third patient",[3]; on any of efficacy parameters,no significant effect
same,"Individual response, another patient",[3]; on headache intensity and frequency,moderate effect
same,Decrease of headache intensity,"[3]; treatment period (4 weeks, up to 900 mg per day) vs run-in, 3 patients",35%
same,Decrease of frequency of headache,[3]; treatment period vs run-in,45%
same,Decrease of mean daily intake of analgesics,[3]; treatment period vs run-in,72%
same,Reduction of duration of the individual headache episode,[3]; treatment period vs run-in,8%
same,Affinity for GABA A,GABA A,fail to show affinity
same,Binding affinity to the alpha-2-subunit of a calcium channel,[4],showed binding affinity
